Data set [1] has as its system HCT116 cells. Kind of data set: [3H]choline uptake in HCT116 cells. The format is cell-based. As to conditions: Homo sapiens, HCT-116. As for the experimental part:
(§1) Enzymatic kinase activity, [^3H]choline to [^3H]PCho conversion and growth inhibition assays was conducted as previously described. [^3H]choline incorporation into soluble and lipid fractions was determined by a pulse-chase experiment. HCT116 cells were seeded at a density of 3 × 10^5 cell per well into 12-well plates and incubated overnight. Cells were treated with 1 or 10 μM ICL-CCIC-0019 for 1 h and pulsed in presence of inhibitor with 18.5 kBq/mL [^3H]choline chloride in 500 μL for 1 additional h. Cells were briefly rinsed with RPMI and incubated with fresh, non-radioactive medium for 6 h. Metabolites were extracted as described elsewhere, but additionally the radioactivity of the choline-containing and chloroform (lipid-containing) fractions was measured. Uptake of radiolabeled metabolite-tracers was measured as described elsewhere. Antiproliferative activity was measured after 72 h continuous exposure to inhibitors by sulforhodamine B (SRB) assay as described elsewhere. Apoptosis was determined using Caspase 3/7 Glo assay (Promega) according to the manufacturer's instructions.

For a further data set, the system named is 2 normal cell lines. Kind of data set: Antiproliferative activity (SRB), initial cell line screen. It counts as cell-based. As to conditions: Homo sapiens; normal cells. As for the experimental part: as §1
The test system of another data set is 8 cancer cell lines. Described as above. The format is cell-based. As to conditions: Homo sapiens. As for the experimental part: as §1
The next data set concerns Breast cancer cell lines. The data set can be described thus: NCI-60 screen. Particulars: Homo sapiens, read-out: median GI50. It counts as cell-based. From the text:
(§2) The compound was then screened against a larger panel of cancer cell lines of diverse histopathologic origin, the NCI-60 screen. […] Mining of publicly available Cancer Genome Atlas (TCGA) expression data identified CHKA amplification and/or mRNA upregulation in 11% of breast, 5–10% of lung, 8% of ovarian, 7% of colorectal and 5% of prostate cancers. Furthermore, CHKA mRNA expression is higher in multiple tumor types compared to normal tissue (Supplementary Figure S1D). The gene was rarely mutated or deleted (0–2.5% mutation rate and < 1% deletion among all tested cancer types). The consistently high expression in a wide variety of tumor types highlights the relevance of CHKA in malignancy and role as a therapeutic target.

The test system of data set [2] is non-small lung cancer cell lines. Kind of data set: NCI-60 screen. The format is cell-based. As to conditions: Homo sapiens, read-out: median GI50.
Source text: as §2

Data set [3] deals with HCT116 cells. The data set can be described thus: Cell membrane integrity assay (LDH release). It counts as cell-based, human. Particulars: 1–25 μM, 4 h. As for the experimental part:
Cell membrane integrity was assessed using a fluorescent kit measuring lactate dehydrogenase (LDH) release (CytoTox-ONETM, Promega) according to manufacturer's instructions.

In data set [4] the test system is HCT116 cells. Kind of data set: Reactive oxygen species assay. The format is cell-based, human. Particulars: 10 μM. As for the experimental part:
For ROS measurements, cells were seeded in 96-well plates and treated with indicated ICL-CCIC-0019 (10 μM), pro- and antioxidants (0.25% H2O2 and 5 mM N-acetyl cysteine, NAC; all from Sigma-Aldrich) for indicated times. C400 (Life Technologies) was added at a final concentration of 50 μM and incubated at 37°C for 15 minutes and fluorescence quantified.

Data set [5] is described as follows: Plasma metabolite analysis by LC-MS. Particulars: pooled 2-hour plasma samples. It counts as in vivo, BALB/c mice. As for the experimental part:
Plasma pharmacokinetic parameters of ICL-CCIC-0019 were established in female BALB/c mice aged 6–8 weeks (Harlan). Mice were intraperitoneally (i.p.) or perorally (p.o.) administered a single dose of 10 mg/kg and blood collected by cardiac puncture after 5, 15, 30 minutes and 1, 2, 4, 6 and 24 h. For tissue pharmacokinetic studies, HCT116 xenograft bearing mice were administered 10 mg/kg ICL-CCIC-0019 i.p. and blood collected after 5 minutes, 2, 6 and 24 h. Plasma was obtained by centrifugation at 1000 × g for 10 minutes. Samples were snap-frozen and stored at −80°C prior to analysis. Analysis was carried out by Cyprotex Inc. using liquid chromatography–mass spectrometry (LC–MS). For analysis of plasma metabolites, 2-hour samples of tissue pharmacokinetic studies were pooled.

For a further data set, the target named is CK2 (Homo sapiens, UniProt P68400). Kind of data set: Kinase selectivity screen. It counts as biochemical. Particulars: CK2, 10 μM.
The next data set deals with EPH-B3 (Homo sapiens, UniProt P54753). Kind of data set: Kinase selectivity screen. Particulars: EPH-B3, 10 μM. The format is biochemical. In short, it runs like this:
(§3)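 ICL-CCIC-0019 was screened against a panel of 131 human kinases to assess kinase specificity. Activity was expressed as percent inhibition of each kinase.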

The next data set concerns the target ERK1 (Homo sapiens, UniProt P27361). The data set can be described thus: Kinase selectivity screen. It counts as biochemical. As to conditions: ERK1, 10 μM. In a few lines: as §3
Another data set deals with JNK2 (Homo sapiens, UniProt P45984). Kind of data set: Kinase selectivity screen. Particulars: JNK2, 10 μM. It counts as biochemical.
The next data set deals with LKB1 (Homo sapiens, UniProt Q15831). Kind of data set: Kinase selectivity screen. It counts as biochemical. As to conditions: LKB1, 10 μM.
The next data set has as its target MKK1 (Homo sapiens, UniProt Q02750). Kind of data set: Kinase selectivity screen. The format is biochemical. Particulars: MKK1, 10 μM.
Another data set addresses MKK2 (Homo sapiens, UniProt P36507). Kind of data set: Kinase selectivity screen. It counts as biochemical. As to conditions: MKK2, 10 μM.
For the next data set, the target named is MLK1 (Homo sapiens, UniProt P80192). The data set can be described thus: Kinase selectivity screen. The format is biochemical. As to conditions: MLK1, 10 μM.
For another data set, the target named is MNK1 (Homo sapiens, UniProt Q9BUB5). The data set can be described thus: Kinase selectivity screen. It counts as biochemical. As to conditions: MNK1, 10 μM.
A further data set addresses MST2 (Homo sapiens, UniProt Q13188). The data set can be described thus: Kinase selectivity screen. As to conditions: MST2, 10 μM. It counts as biochemical. In a few lines:
as §3

The target in the next data set is PKA (Homo sapiens, UniProt P17612). The data set can be described thus: Kinase selectivity screen. The format is biochemical. In a few lines:
as §3

The next data set has as its target p38a MAPK (Homo sapiens, UniProt Q16539). Kind of data set: Kinase selectivity screen. It counts as biochemical. In a few lines:
as §3

A further data set concerns the target p38b MAPK (Homo sapiens, UniProt Q15759). Kind of data set: Kinase selectivity screen. The format is biochemical. In a few lines:
as §3

Read-outs that look alike come from different tables or passages of the source.

Sequence of EPH-B3 (P54753 34-998): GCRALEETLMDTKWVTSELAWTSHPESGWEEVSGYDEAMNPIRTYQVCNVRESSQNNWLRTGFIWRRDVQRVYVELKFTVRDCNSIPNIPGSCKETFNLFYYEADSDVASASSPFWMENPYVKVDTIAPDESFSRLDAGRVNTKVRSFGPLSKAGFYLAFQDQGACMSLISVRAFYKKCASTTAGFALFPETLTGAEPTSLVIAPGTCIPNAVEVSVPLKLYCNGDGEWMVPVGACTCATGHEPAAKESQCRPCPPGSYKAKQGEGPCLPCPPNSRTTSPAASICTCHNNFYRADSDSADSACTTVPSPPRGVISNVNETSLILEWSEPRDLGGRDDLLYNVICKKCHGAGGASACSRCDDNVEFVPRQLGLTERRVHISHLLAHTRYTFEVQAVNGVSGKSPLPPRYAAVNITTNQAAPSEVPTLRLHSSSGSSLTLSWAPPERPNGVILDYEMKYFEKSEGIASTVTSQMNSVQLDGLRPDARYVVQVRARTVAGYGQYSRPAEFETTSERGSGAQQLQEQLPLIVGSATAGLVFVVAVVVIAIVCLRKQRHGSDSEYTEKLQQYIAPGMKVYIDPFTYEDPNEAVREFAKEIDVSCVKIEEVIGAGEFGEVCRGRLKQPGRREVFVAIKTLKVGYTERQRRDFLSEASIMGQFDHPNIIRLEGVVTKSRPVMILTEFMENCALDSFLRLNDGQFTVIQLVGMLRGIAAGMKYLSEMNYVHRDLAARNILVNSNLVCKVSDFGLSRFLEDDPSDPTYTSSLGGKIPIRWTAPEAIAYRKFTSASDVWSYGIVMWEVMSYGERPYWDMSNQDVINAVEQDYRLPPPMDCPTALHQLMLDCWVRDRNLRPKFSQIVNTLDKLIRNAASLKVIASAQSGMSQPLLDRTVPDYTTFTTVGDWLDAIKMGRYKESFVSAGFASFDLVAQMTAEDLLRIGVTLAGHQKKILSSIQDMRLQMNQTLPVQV
Sequence of p38b MAPK (Q15759 whole entry): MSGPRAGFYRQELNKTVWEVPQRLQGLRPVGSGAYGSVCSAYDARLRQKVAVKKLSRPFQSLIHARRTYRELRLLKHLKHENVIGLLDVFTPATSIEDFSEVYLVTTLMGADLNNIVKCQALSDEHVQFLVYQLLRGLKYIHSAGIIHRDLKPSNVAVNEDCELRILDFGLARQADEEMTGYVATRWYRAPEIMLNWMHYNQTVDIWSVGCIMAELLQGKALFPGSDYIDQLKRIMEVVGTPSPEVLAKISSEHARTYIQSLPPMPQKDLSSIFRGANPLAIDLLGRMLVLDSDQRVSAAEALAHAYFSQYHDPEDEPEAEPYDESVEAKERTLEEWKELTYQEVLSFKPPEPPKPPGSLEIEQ
Sequence of MNK1 (Q9BUB5 whole entry): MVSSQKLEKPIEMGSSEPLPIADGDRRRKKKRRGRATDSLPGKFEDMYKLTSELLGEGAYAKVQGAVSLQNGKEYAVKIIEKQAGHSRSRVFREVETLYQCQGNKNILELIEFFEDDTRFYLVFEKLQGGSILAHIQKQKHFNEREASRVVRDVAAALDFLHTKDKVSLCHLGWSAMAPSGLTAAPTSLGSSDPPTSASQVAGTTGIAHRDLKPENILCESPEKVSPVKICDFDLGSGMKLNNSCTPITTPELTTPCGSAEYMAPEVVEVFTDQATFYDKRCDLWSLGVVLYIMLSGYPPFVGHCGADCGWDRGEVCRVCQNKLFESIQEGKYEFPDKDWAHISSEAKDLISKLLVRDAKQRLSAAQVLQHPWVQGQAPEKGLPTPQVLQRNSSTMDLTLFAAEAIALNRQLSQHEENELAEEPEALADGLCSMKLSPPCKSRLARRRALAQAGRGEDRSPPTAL
Sequence of LKB1 (Q15831 whole entry): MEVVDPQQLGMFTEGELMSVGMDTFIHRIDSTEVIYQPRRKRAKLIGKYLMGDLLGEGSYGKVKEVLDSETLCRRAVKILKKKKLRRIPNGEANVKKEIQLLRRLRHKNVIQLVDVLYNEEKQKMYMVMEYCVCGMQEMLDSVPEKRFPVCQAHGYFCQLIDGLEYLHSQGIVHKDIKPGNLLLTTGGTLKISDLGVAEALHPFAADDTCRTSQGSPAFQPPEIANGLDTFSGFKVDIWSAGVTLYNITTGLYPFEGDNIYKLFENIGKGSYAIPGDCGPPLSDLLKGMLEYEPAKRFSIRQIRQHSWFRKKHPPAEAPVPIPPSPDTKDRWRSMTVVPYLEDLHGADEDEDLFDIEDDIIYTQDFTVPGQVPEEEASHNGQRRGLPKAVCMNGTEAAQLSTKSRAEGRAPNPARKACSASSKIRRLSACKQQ
Sequence of LKB1 (Q7RTN6 whole entry partner): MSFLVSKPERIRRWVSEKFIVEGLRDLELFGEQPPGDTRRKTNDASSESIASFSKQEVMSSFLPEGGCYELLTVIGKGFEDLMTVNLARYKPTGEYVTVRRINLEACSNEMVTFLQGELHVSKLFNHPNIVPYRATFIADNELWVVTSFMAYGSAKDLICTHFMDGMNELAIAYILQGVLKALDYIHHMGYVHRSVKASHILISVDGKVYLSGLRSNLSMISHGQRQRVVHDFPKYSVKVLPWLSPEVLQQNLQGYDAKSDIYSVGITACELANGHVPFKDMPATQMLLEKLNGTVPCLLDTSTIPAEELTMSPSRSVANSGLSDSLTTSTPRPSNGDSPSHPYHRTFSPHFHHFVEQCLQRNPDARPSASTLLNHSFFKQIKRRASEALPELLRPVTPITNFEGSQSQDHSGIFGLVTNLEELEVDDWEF
Sequence of LKB1 (Q9Y376 whole entry partner): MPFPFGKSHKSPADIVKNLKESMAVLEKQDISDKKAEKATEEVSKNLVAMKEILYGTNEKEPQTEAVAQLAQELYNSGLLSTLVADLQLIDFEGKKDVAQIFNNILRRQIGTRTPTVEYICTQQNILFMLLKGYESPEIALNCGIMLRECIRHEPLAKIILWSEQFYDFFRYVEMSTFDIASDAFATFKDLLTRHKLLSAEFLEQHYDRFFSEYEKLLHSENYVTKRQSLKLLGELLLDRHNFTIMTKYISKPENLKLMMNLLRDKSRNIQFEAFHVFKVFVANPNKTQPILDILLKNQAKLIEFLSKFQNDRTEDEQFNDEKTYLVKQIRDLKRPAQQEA
Sequence of ERK1 (P27361 whole entry): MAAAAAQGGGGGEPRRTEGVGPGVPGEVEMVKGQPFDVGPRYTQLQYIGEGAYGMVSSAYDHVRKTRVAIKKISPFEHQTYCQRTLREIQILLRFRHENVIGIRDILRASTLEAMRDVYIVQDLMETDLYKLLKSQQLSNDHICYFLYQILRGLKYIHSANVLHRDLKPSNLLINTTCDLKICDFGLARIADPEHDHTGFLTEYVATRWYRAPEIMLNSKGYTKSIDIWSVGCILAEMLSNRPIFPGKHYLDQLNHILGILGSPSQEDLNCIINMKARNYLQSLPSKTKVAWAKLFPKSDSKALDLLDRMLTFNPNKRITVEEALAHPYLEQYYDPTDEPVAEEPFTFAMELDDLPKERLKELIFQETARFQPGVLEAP
Sequence of MST2 (Q13188 whole entry): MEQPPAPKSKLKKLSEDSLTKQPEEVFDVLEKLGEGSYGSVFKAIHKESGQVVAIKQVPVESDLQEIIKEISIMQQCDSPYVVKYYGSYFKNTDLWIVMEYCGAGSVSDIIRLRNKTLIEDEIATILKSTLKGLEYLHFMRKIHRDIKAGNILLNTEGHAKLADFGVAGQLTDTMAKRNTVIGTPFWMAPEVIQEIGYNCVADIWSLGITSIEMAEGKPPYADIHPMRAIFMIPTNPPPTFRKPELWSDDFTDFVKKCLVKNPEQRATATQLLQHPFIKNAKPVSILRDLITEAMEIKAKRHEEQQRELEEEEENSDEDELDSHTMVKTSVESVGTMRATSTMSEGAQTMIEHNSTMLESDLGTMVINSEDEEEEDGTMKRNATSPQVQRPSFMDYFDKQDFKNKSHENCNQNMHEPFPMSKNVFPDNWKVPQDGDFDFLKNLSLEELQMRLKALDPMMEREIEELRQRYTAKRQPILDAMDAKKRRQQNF
Sequence of CK2 (P68400 whole entry): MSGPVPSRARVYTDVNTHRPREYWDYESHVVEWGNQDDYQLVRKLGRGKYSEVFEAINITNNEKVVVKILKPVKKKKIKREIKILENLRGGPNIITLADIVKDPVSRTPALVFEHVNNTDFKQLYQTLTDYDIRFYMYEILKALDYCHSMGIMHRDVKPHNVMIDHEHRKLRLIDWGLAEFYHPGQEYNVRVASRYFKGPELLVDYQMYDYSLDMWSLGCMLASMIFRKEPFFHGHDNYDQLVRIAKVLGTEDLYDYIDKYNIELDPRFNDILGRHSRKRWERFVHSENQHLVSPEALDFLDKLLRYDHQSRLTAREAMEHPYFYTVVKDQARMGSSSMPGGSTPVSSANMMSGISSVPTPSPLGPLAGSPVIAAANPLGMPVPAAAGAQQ
Sequence of p38a MAPK (Q16539 whole entry): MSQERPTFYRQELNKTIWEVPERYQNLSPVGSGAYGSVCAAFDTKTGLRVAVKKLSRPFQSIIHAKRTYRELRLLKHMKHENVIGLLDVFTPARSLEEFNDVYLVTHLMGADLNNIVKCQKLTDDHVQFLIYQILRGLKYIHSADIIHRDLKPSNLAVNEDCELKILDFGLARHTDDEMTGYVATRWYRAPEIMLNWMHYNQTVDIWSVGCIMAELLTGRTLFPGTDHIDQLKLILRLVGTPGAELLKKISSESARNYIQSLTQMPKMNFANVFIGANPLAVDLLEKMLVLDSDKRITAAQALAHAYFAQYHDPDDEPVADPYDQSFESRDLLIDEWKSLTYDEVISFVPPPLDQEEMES

For the compound `CN(C)c1cc[n+](CCCCCCCCCCCC[n+]2ccc(N(C)C)cc2)cc1` [ICL-CCIC-0019], the midpoint of the response in the data set with HCT116 cells [1], the EC50, lay at 980 ± 240 nM. Also, the GI50 (in general, the concentration giving 50% growth inhibition) with 2 normal cell lines is 30000 to 120000 nM; with 8 cancer cell lines (read-out: GI50 range), 380 to 2700 nM; with 8 cancer cell lines (read-out: mean GI50) it was 1090 nM; in the data set on Breast cancer cell lines, 627 nM; in [2], 751 nM. Also, in the data set on HCT116 cells [3], the “LDH concentration in the supernatant” value is reported as “did not elevate LDH concentration”. Moreover, the “formation of reactive oxygen species” value in the data set with HCT116 cells [4] is reported as “not accompanied by formation of reactive oxygen species”. In addition, the “metabolic stability in plasma” value in [5] is reported as “metabolically stable”. The remaining activity (as a rule, the signal under treatment as a percentage of the control signal) at 10 µM is 86% on CK2; 107% on EPH-B3; 91% at ERK1; 100% on JNK2; 100% at LKB1; 82% on MKK1. Further, the remaining activity at 10 µM is 95% at MKK2; 91% at MLK1; 101% at MNK1; 89% on MST2; 106% at PKA; 108% on p38a MAPK. Further, the remaining activity at 10 µM on p38b MAPK was 107%.

These data come from paper PMC5095062, “The novel choline kinase inhibitor ICL-CCIC-0019 reprograms cellular metabolism and inhibits cancer cell growth” (Oncotarget, 2016).
